Measurements published in patent US8759519B2, “Mono-hydrochloric salts of an inhibitor of histone deacetylase” (Janssen Pharmaceutica NV, priority 2007, dated 2014).
Where a name gives a salt, the structure may show the parent alone. Read-outs that look alike come from different tables or passages of the source.

Legend:
Format in all cases: physicochemical
[1] = Aqueous solubility in solvents with different pH; conditions: 20° C., read-out: Solubility (mg/ml solution)
Experimental: Aqueous solubilities of Form I were measured in solvents with different pH. An excess of the solute was equilibrated with the solvent at 20° C. for 24 hours. After removing the undissolved compound, the concentration in solution was determined using UV spectrometry.

[2] = Adsorption/desorption of water (dynamic vapor sorption); conditions: 25° C., hydrochloride
Experimental: The ADS/DES data were obtained using a SMS dynamic vapor sorption model DVS-1 and the weight change was recorded with tespect to the atmospheric humidity at 25° C. The weight of the samples was about 17 mg of Form I and 24 mg of Form II. The samples were dried for 60 min under dry nitrogen. The equilibrium was lower or equal to 0.01%/min. for minimal 15 min and maximal 60 min. The data interval was 0.05% or 2.0 min.
Relative Humidity (%) measurement points were:
The adsorption and desorption of water at 25° C. at different conditions of relative humidity was investigated on 17 mg Form I.
The weight change as a function of relative humidity was registered.
The adsorption and desorption of water at 25° C. at different conditions of relative humidity was investigated on about 24 mg Form II

[3] = Chemical stability after storage in open conditions (HPLC, visual inspection); conditions: for Appearance / HPLC Sum of impurities: hydrochloride
Experimental: Form I was stored in different open conditions for periods of 1, 4 and 8 weeks.
These conditions are 40° C./75% RH, 50° C., RT/<5% RH, RT/56% RH, RT/75% RH and 0.3 da ICH light.
The compounds were analyzed after storage by HPLC and by visual inspection.
Form II was stored in different open conditions for periods of 1, 4 and 8 weeks. These conditions were 40° C./75% RH, 50° C., RT/<5% RH, RT/56% RH, RT/75% RH and 0.3 da ICH light.

[4] = Crystallographic stability after storage in open conditions (TGA, DSC, XRPD, IR); parameters: key to XRD / IR: ~Ref: identical with reference; Cryst.: crystalline; conditions: for IR / XRD: Table E
Experimental: The stability of the crystal structure of Form I was studied after storage of the compound in open conditions for a period of six weeks at room temperature (RT) under <5%, 56% and 75% relative humidity (RH), 50° C. and 40° C./75% RH.
The samples are analyzed with thermogravimetry (TGA), differential scanning calorimetry (DSC), X-ray powder diffraction (XRPD) and infrared spectroscopy (IR).
The stability of the crystal structure of Form II was studied after storage of the compound in open conditions for a period of six weeks at room temperature (RT) under <5%, 56% and 75% relative humidity (RH), 50° C. and 40° C./75% RH.
The samples were analyzed with thermogravimetry (TGA), differential scanning calorimetry (DSC), X-ray powder diffraction (XRPD) and infrared spectroscopy (IR).

[5] = 0 days (reference), hydrochloride
[6] = six weeks open, 40° C./75% RH, hydrochloride
[7] = six weeks open, 50° C., hydrochloride
[8] = six weeks open, RT/56% RH, hydrochloride
[9] = six weeks open, RT/75% RH, hydrochloride
[10] = six weeks open, RT/<5% RH, hydrochloride

**Q.** What does the source list for `Cn1cc(CNCC2CCN(c3ncc(C(=O)NO)cn3)CC2)c2ccccc21` [Form I, N-hydroxy-2-[4-[[[(1-methyl-1H-indol-3-yl)methyl]amino]methyl]-1-piperidinyl]-5-pyrimidinecarboxamide hydrochloride]?
**A.** solubility thermodynamic at 24 h ([1]; aqueous buffer, 0.001N HCl (pH 2.9)): 1.5 mg/mL; solubility thermodynamic at 24 h ([1]; aqueous buffer, 0.01N HCl (pH 2.0)): 1.4 mg/mL; solubility thermodynamic at 24 h ([1]; aqueous buffer, Buffer pH 2 (citric acid/NaOH/HCl) (pH 2.0)): 0.95 mg/mL; solubility thermodynamic at 24 h ([1]; aqueous buffer, Buffer pH 4 (citric acid/HCl/NaOH) (pH 3.9)): 1.2 mg/mL; solubility thermodynamic at 24 h ([1]; aqueous buffer, Buffer pH 6 (citric acid/NaOH) (pH 6.0)): 1.5 mg/mL; solubility thermodynamic at 24 h ([1]; aqueous buffer, Buffer pH 8 (boric acid/HCl/NaOH) (pH 7.8)): 1.3 mg/mL; solubility thermodynamic at 24 h ([1]; aqueous buffer, Buffer pH 10 (boric acid/KCl/NaOH) (pH 9.8)): 1.3 mg/mL; solubility thermodynamic at 24 h ([1]; water (pH 4.5)): 1.4 mg/mL; hygroscopic behavior ([2]; adsorption/desorption test): no hygroscopic behavior; water adsorbed at high relative humidity ([2]; high relative humidity): up to 0.6%; crystallinity during the adsorption/desorption test [2]: remained crystalline; Appearance ([3]; 0.3 da ICH light (1 week)): beige-gray; HPLC Sum of impurities ([3]; 0.3 da ICH light (1 week)): 4.58%; Appearance ([3]; 40° C./75% RH, 1 week): beige-gray; HPLC Sum of impurities ([3]; 40° C./75% RH, 1 week): 3.31%; Appearance ([3]; 40° C./75% RH, 4 weeks): beige-gray; HPLC Sum of impurities ([3]; 40° C./75% RH, 4 weeks): 3.13%; Appearance ([3]; 40° C./75% RH, 8 weeks): beige-gray; HPLC Sum of impurities ([3]; 40° C./75% RH, 8 weeks): 3.59%; Appearance ([3]; 50° C., 1 week): beige-gray; HPLC Sum of impurities ([3]; 50° C., 1 week): 3.19%; Appearance ([3]; 50° C., 4 weeks): beige-gray; HPLC Sum of impurities ([3]; 50° C., 4 weeks): 3.2%; Appearance ([3]; 50° C., 8 weeks): beige-gray; HPLC Sum of impurities ([3]; 50° C., 8 weeks): 3.16%; Appearance ([3]; RT/56% RH, 4 weeks): beige-gray; HPLC Sum of impurities ([3]; RT/56% RH, 4 weeks): 3.27%; Appearance ([3]; RT/56% RH, 8 weeks): beige-gray; HPLC Sum of impurities ([3]; RT/56% RH, 8 weeks): 3.15%; Appearance ([3]; RT/75% RH, 4 weeks): beige-gray; HPLC Sum of impurities ([3]; RT/75% RH, 4 weeks): 3.43%; Appearance ([3]; RT/75% RH, 8 weeks): beige-gray; HPLC Sum of impurities ([3]; RT/75% RH, 8 weeks): 3.39%; Appearance ([3]; RT/<5% RH, 4 weeks): beige-gray; HPLC Sum of impurities ([3]; RT/<5% RH, 4 weeks): 3.42%; Appearance ([3]; RT/<5% RH, 8 weeks): beige-gray; HPLC Sum of impurities ([3]; RT/<5% RH, 8 weeks): 3.16%; Appearance ([3]; Reference (1 week)): beige-gray; HPLC Sum of impurities ([3]; Reference (1 week)): 3.14%; sensitivity towards light (sum of impurities) ([3]; storage in 0.3 da ICH light conditions): showed a sensitivity towards light; DSC Exotherm Max (° C.) ([4]; 0 days (reference)): 216.8 °C; TGA <200° C. ([4]; 0 days (reference)): 0.9%; App (appearance) [4, 5]: Beige-gray; TGA <100° C. [4, 5]: 0.4%; IR ([4]; six weeks open, 40° C./75% RH): ~Ref; XRD ([4]; six weeks open, 40° C./75% RH): ~Ref; IR ([4]; six weeks open, 50° C.): ~Ref; XRD ([4]; six weeks open, 50° C.): ~Ref; IR ([4]; six weeks open, RT/56% RH): ~Ref; XRD ([4]; six weeks open, RT/56% RH): ~Ref; IR ([4]; six weeks open, RT/75% RH): ~Ref; XRD ([4]; six weeks open, RT/75% RH): ~Ref; IR ([4]; six weeks open, RT/<5% RH): ~Ref; XRD ([4]; six weeks open, RT/<5% RH): ~Ref; crystallographic stability (conclusion) ([4]; six weeks open storage under the different conditions, hydrochloride): crystallographically stable; DSC Exotherm Max (° C.) ([4]; six weeks open, 40° C./75% RH): 216.9 °C; TGA <200° C. ([4]; six weeks open, 40° C./75% RH): 0.3%; App (appearance) [4, 6]: Beige-gray; TGA <100° C. [4, 6]: 1%; DSC Exotherm Max (° C.) ([4]; six weeks open, 50° C.): 216.9 °C; TGA <200° C. ([4]; six weeks open, 50° C.): 0.3%; App (appearance) [4, 7]: Beige-gray; TGA <100° C. [4, 7]: 0.5%; DSC Exotherm Max (° C.) ([4]; six weeks open, RT/56% RH): 216.9 °C; TGA <200° C. ([4]; six weeks open, RT/56% RH): 0.4%; App (appearance) [4, 8]: Beige-gray; TGA <100° C. [4, 8]: 0.5%; DSC Exotherm Max (° C.) ([4]; six weeks open, RT/75% RH): 217.0 °C; TGA <200° C. ([4]; six weeks open, RT/75% RH): 0.4%; App (appearance) [4, 9]: Beige-gray; TGA <100° C. [4, 9]: 0.9%; DSC Exotherm Max (° C.) ([4]; six weeks open, RT/<5% RH): 216.7 °C; TGA <200° C. ([4]; six weeks open, RT/<5% RH): 0.5%; App (appearance) [4, 10]: Beige-gray; TGA <100° C. [4, 10]: 0.8%
